According to US4837399A, “Napthoquinone antibiotics from fuserium solani” (The United States of America as represented by the …, priority 1988, dated 1989):
Values after ≈ are worked out from the molar mass of the structure shown.

How the values were obtained:
Type in all cases: cell-based
Staphylococcus aureus = assay: Broth microdilution assay, Staphylococcus aureus; settings: for MIC: A = Staphylococcus aureus, complete suppression of microbial growth, read-out: Antibacterial activity (MIC)
Procedure: (§1) Purified compounds were tested for antibiotic activity by dissolving in dimethyl sulfoxide and utilizing a standard broth microdilution assay. The smallest amount of compound resulting in complete inhibition of bacterial growth is the minimum inhibitory concentration (MIC).
(§2) The organisms used in the tests were three strains of gram-positive bacteria: Staphylococcus aureus, Streptococcus pyogenes, and a strain of Staphylococcus aureus which was resistant to the antibiotic methicillin.
(§3) Antimicrobial activity of compounds was determined against a group of bacterial pathogens, using a broth microdilution assay.Pathogens tested included Staphylococcus aureus, Streptococcus pyogenes, Escherichia coli, Serratia marcescens, Proteus vulgaris, Klebsiella pneumoniae, Salmonella typhi, and Pseudomonas aeruginosa. Activity against plant pathogenic bacteria was tested by applying acetone solutions of compounds to 14 mm Whatman No. 1 filter paper discs, drying and placing four discs/plate on freshly inoculated Kings medium B plates. Pseudomonas cepacia, P. cichorii, P. fluorescens, P. syringae pv. phaseolicola, P. viridiflava, and Xanthomonas campestris were exposed to discs containing 20 μg of compound; Curtobacterium flaccumfaciens pv. poinsettiae (formerly Corynebacterium poinsettiae) was tested at 20, 40, and 80 μg/disc. Using a similar assay procedure, Alternaria citri, Colletotrichum gloeosporioides, Diplodia natalensis, Fusarium solani, F. oxysporum, Geotrichum candidium, Phomopsis citri, and Phytophthora parasitica were tested to determine the antifungal properties of the compounds.

Streptococcus pyogenes = assay: Broth microdilution assay, Streptococcus pyogenes; settings: for MIC: B = Streptococcus pyogenes, complete suppression of microbial growth, read-out: Antibacterial activity (MIC)
Procedure: as §1, §2, §3

[1] = tested on: Curtobacterium flaccumfaciens pv. poinsettiae; assay: Filter paper disc assay, Curtobacterium flaccumfaciens pv. poinsettiae; settings: 20, 40, and 80 μg/disc, Kings medium B plates
Procedure: as §3
They were, however, effective against gram-positive bacteria.

[2] = tested on: Staphylococcus aureus 95 (resistant to methicillin); assay: Broth microdilution assay, Staphylococcus aureus 95 (resistant to methicillin)
Procedure: as §1, §2

gram-positive bacteria = assay: Broth microdilution assay, gram-positive bacteria overall
Procedure: as §1, §2
as §3, with “Using a similar assay procedure, Alternaria citri, Colletotrichum gloeosporioides, Diplodia natalensis, Fusarium solani, F. oxysporum, Geotrichum candidium, Phomopsis citri, and Phytophthora parasitica were tested to determine the antifungal properties of the compounds.” left out

Row | Compound | MIC (Staphylococcus aureus) [µg/mL] | MIC (Streptococcus pyogenes) [µg/mL] | ranking of activity against Curtobacterium flaccumfaciens pv. poinsettiae [1] | effectiveness in control of Staphylococcus aureus (in words) (Staphylococcus aureus) | preference for control of Staphylococcus aureus 95 (in words) [2] | MIC ([2]; C = Staphylococcus aureus 95 (resistant to methicillin), complete suppression of microbial growth, read-out: Antibacterial activity (MIC)) [µg/mL] | effectiveness against gram-positive bacteria (in words) (gram-positive bacteria) | MIC (gram-positive bacteria; read-out: inhibiting growth) [µg/mL] | preference for control of Streptococcus pyogenes (in words) (Streptococcus pyogenes)
1 | COC1=CC(=O)c2c(O)c(CO)c(CC(C)O)c(O)c2C1=O (stereo not drawn) [Compound 3, 5,8-Dihydroxy-2-methoxy-6-hydroxymethyl-7-(2-hydroxypropyl)-1,4-naphthalenedione] | 1 (≈ 3.24 µM) | 64 (≈ 208 µM) | followed by 1 and 3 | – | – | – | – | – | –
2 | COC1=CC(=O)c2c(O)c(CO)c3c(c2C1=O)OC(C)C3 (stereo not drawn) [Compound 2, 2,3-Dihydro-5-hydroxy-4-hydroxymethyl-8-methoxy-2-methyl-naphtho [1,2-b]furan-6,9-dione] | 4 (≈ 13.8 µM) | 64 (≈ 220 µM) | most active | most effective | – | – | – | – | –
3 | COc1cc(O)c2c(c1O)C(=O)C(CC(C)O)C(CO)C2=O (stereo not drawn) [Compound 1, 2,3-Dihydro-5,8-dihydroxy-6-methoxy-2-hydroxymethyl-3-(2-hydroxypropyl)-1,4-naphthalenedione] | 1 (≈ 3.22 µM) | 0.5 (≈ 1.61 µM) | – | most effective | preferred | 4 (≈ 12.9 µM) | the most effective | 0.5 to 1 (≈ 1.61 to 3.22 µM) | preferred
